Test results reported in patent EP4582426A1, “PAN-KRAS INHIBITOR COMPOUND” (Adlai Nortye Biopharma Co., Ltd., priority 2022, dated 2024).

How the values were obtained:
AsPC-1 (G12D) = experiment: In vitro cell proliferation inhibition test (CellTiter-Glo Luminescent Cell Viability Assay); format: cell-based; settings: AsPC-1 cell line, Pancreas, KRAS (p.G12D), cells and compounds co-incubated 72 hours
Excerpt: (§1) Due to the diversity of RAS mutations and in order to evaluate the activity of compounds in different RAS mutant cell lines, we selected KRAS^WT, KRAS^G12C, KRAS^G12D), KRAS^G12V and BRAF mutant cell lines (see the table below) for in vitro activity evaluation and screening of compounds .
(§2) Experimental protocol: CellTiter-Glo® Cell Luminescent Viability Assay (Promega)
(§3) According to the doubling time of different cell lines, different numbers of cells (1000-5000 cells/well) were inoculated into 96-well plates containing 180 µl of the corresponding medium, and cultured overnight in a 37°C cell incubator containing 5% CO2. On the second day, the compound to be tested was pre-diluted 3-fold with the medium, the highest concentration was 100 µM, and there were 10 concentration gradients in total; then 20 µl of the medium containing different concentrations of the compound was added to the cells in the 96-well plate to ensure the final concentration of the compound to be up to 10 µM, with 10 concentration gradients of 3-fold dilutions. After co-incubating cells and compounds for 72 hours, the 96-well plate was taken out of the incubator, placed at room temperature for 30 minutes, and then 25 µl CellTiter-Glo® Reagent was added to each well to mix well, and incubated at room temperature for 10 minutes, and then 100 µl of the sample was transferred to a white 96-well plate (OptiPlateTM-96, PerkinElmer), the […] signal value was read using a multi-functional microplate reader (SpectraMax® i3x, Molecular devices). Subsequently, the signal value was standardized, and the four-parameter fitting regression equation was used for curve fitting to calculate the half maximal inhibitory concentration (IC50) of the compound on the cell line. Table 3: Antiproliferative activity of compounds of the present invention on KRAS cell mutants

SW480 (G12V) = experiment: as above; format: cell-based; settings: SW480 cell line, Large intestine, Colon, KRAS (p.G12V), cells and compounds co-incubated 72 hours
Excerpt: as §1, §2, §3

CCn1c(-c2cc(C#CC3CCN(CCO)CC3)cnc2C(C)OC)c2c3cc(ccc31)-c1csc(n1)CC(NC(=O)C1CC1C)C(=O)N1CCCC(N1)C(=O)OCC(C)(C)C2 [Example 55, (1S,2S)-N-((6^3S,4S,Z)-1^1-ethyl-1^2-(5-((1-(2-hydroxyethyl)piperidin-4-yl)ethynyl)-2-((S)-1-methoxyethyl)pyridin-3-yl)-10,10-dimethyl-5,7-dioxo-6^1,6^2,6^3,6^4,6^5,6^6-hexahydro-1^1H-8-oxa-2(4,2)-thiazola-1(5,3)-indola-6(1,3)-pyridazinacycloundecaphane-4-yl)-2-methylcyclopropane-1-carboxamide]
IC50 (AsPC-1 (G12D)): 3 nM
IC50 (SW480 (G12V)): 23.3 nM

CCn1c(-c2cc(C#Cc3cccnc3)cnc2C(C)OC)c2c3cc(ccc31)-c1csc(n1)CC(NC(=O)C1CC1C)C(=O)N1CCCC(N1)C(=O)OCC(C)(C)C2 [Example 17, (1S,2S)-N-((63S,4S,Z)-11-ethyl-12-(2-((S)-1-methoxyethyl)-5-(pyridin-3-ylethynyl)pyridin-3-yl)-10,10-dimethyl-5,7-dioxo-61,62,63,64,65,66-hexahydro-11H-8-oxa-2(4,2)-thiazola-1(5,3)-indola-6(1,3)-pyridazinacyclonecaphane-4-yl)-2-methylcyclopropane-1-carboxamide]
IC50 (AsPC-1 (G12D)): 37.8 nM
IC50 (AsPC-1 (G12D); listed as 17'): 700 nM
IC50 (SW480 (G12V)): 30.2 nM
IC50 (SW480 (G12V); listed as 17'): 474 nM

(1S,2S)-N-((6^3S,4S,Z)-1^1-ethyl-1^2-(5-(((R)-4-(2-hydroxyethyl)morpholin-3-yl)ethynyl)-2-((S)-1-methoxyethyl)pyridin-3-yl)-10,10-dimethyl-5,7-dioxo-6^1,6^2,6^3,6^4,6^5,6^6-hexahydro-1^1H-8-oxa-2(4,2)-thiazola-1(5,3)-indola-6(1,3)-pyridazinacycloundecaphane-4-yl)-2-methylcyclopropane-1-carboxamide [Example 33]
IC50 (AsPC-1 (G12D)): 2.9 nM
IC50 (SW480 (G12V)): 6.5 nM

CCn1c(-c2cc(C#Cc3cnc(N)cn3)cnc2[C@H](C)OC)c2c3cc(ccc31)-c1csc(n1)C[C@H](NC(=O)[C@H]1C[C@@H]1C)C(=O)N1CCC[C@H](N1)C(=O)OCC(C)(C)C2 [Example 35, (1S,2S)-N-((6^3S,4S,Z)-1^2-(5-((5-aminopyrazin-2-yl)ethynyl)-2-((S)-1-methoxyethyl)pyridin-3-yl)-1^1-ethyl-10,10-dimethyl-5,7-dioxo-6^1,6^2,6^3,6^4,6^5,6^6-hexahydro-1^1H-8-oxa-2(4,2)-thiazola-1(5,3)-indola-6(1,3)-pyridazinacycloundecaphane-4-yl)-2-methylcyclopropane-1-carboxamide]
IC50 (AsPC-1 (G12D); Homo sapiens, ASPC1): 56 nM
IC50 (SW480 (G12V); Homo sapiens): 37 nM

CCn1c(-c2cc(C#CCN3CCN(C(C)=O)CC3)cnc2C(C)OC)c2c3cc(ccc31)-c1csc(n1)CC(NC(=O)C1C(C)C1C)C(=O)N1CCCC(N1)C(=O)OCC(C)(C)C2 [Example 41, (1r,2R,3S)-N-((6^3S,4S,Z)-1^2-(5-(3-(4-acetylpiperazin-1-yl)prop-1-yn-1-yl)-2-((S)-1-methoxyethyl)pyridin-3-yl)-1^1-ethyl-10,10-dimethyl-5,7-dioxo-6^1,6^2,6^3,6^4,6^5,6^6-hexahydro-1^1H-8-oxa-2(4,2)-thiazola-1(5,3)-indola-6(1,3)-pyridazinacycloundecaphane-4-yl)-2,3-dimethylcyclopropane-1-carboxamide]
IC50 (AsPC-1 (G12D)): 0.56 nM
IC50 (SW480 (G12V)): 0.65 nM

CCn1c(-c2cc(C#CCN3CCOCC3)cnc2[C@H](C)OC)c2c3cc(ccc31)-c1csc(n1)C[C@H](NC(=O)[C@H]1C[C@@H]1c1ccccc1)C(=O)N1CCC[C@H](N1)C(=O)OCC(C)(C)C2 (single isomer, unassigned) [Example 23]
IC50 (AsPC-1 (G12D)): 1.6 nM
IC50 (SW480 (G12V)): 3.8 nM

CCn1c(-c2cc(C#CCN3CCOCC3)cnc2[C@H](C)OC)c2c3cc(ccc31)-c1csc(n1)C[C@H](NC(=O)[C@H]1[C@H](C)[C@@H]1C)C(=O)N1CCC[C@H](N1)C(=O)OCC(C)(C)C2 [Example 2, (1r,2R,3S)-N-((63S,4S,Z)-11-ethyl-12-(2-((S)-1-methoxyethyl)-5-(3-morpholinoprop-1-yn-1-yl)pyridin-3-yl)-10,10-dimethyl-5,7-dioxo-61,62,63,64,65,66-hexahydro-11H-8-oxa-2(4,2)-thiazola-1(5,3)-indola-6(1,3)-pyridazinacycloundecaphane-4-yl)-2,3-dimethylcyclopropane-1-carboxamide]
IC50 (AsPC-1 (G12D)): 0.25 nM
IC50 (AsPC-1 (G12D); listed as 2'): 172 nM
IC50 (SW480 (G12V)): 0.33 nM
IC50 (SW480 (G12V); listed as 2'): 74 nM

CCn1c(-c2cc(C#Cc3cncnc3N)cnc2C(C)OC)c2c3cc(ccc31)-c1csc(n1)CC(NC(=O)C1C(C)C1C)C(=O)N1CCCC(N1)C(=O)OCC(C)(C)C2 [Example 34, (1r,2R,3S)-N-((6^3S,4S,Z)-1^2-(5-((4-aminopyrimidin-5-yl)ethynyl)-2-((S)-1-methoxyethyl)pyridin-3-yl)-1^1-ethyl-10,10-dimethyl-5,7-dioxo-6^1,6^2,6^3,6^4,6^5,6^6-hexahydro-1^1H-8-oxa-2(4,2)-thiazola-1(5,3)-indola-6(1,3)-pyridazinacycloundecaphane-4-yl)-2,3-dimethylcyclopropane-1-carboxamide]
IC50 (AsPC-1 (G12D)): 1.3 nM
IC50 (SW480 (G12V)): 0.75 nM

CCn1c(-c2cc(C#CC3CCNCC3)cnc2[C@H](C)OC)c2c3cc(ccc31)-c1csc(n1)C[C@H](NC(=O)[C@H]1C[C@@H]1C)C(=O)N1CCC[C@H](N1)C(=O)OCC(C)(C)C2 [Example 48, (1S,2S)-N-((6^3S,4S,Z)-1^1-ethyl-1^2-(2-((S)-1-methoxyethyl)-5-(piperidin-4-ylethynyl)pyridin-3-yl)-10,10-dimethyl-5,7-dioxo-6^1,6^2,6^3,6^4,6^5,6^6-hexahydro-1^1H-8-oxa-2(4,2)-thiazola-1(5,3)-indola-6(1,3)-pyridazinacycloundecaphane-4-yl)-2-methylcyclopropane-1-carboxamide]
IC50 (AsPC-1 (G12D)): 5.4 nM
IC50 (SW480 (G12V)): 1.7 nM

CO[C@@H](C)c1ncc(C#CCN2CCOCC2)cc1-c1c2c3cc(ccc3n1CC(F)(F)F)-c1csc(n1)C[C@H](NC(=O)[C@H]1C[C@@H]1C)C(=O)N1CCC[C@H](N1)C(=O)OCC(C)(C)C2 (single isomer, unassigned) [Example 3]
IC50 (AsPC-1 (G12D)): 3.5 nM
IC50 (AsPC-1 (G12D); listed as 3'): 292 nM
IC50 (SW480 (G12V)): 2.2 nM
IC50 (SW480 (G12V); listed as 3'): 2060 nM

CCn1c(-c2cc(C#Cc3cccc4ccn(C)c34)cnc2[C@H](C)OC)c2c3cc(ccc31)-c1csc(n1)C[C@H](NC(=O)[C@H]1C[C@@H]1C)C(=O)N1CCC[C@H](N1)C(=O)OCC(C)(C)C2 [Example 47, (1S,2S)-N-((6^3S,4S,Z)-1^1-ethyl-1^2-(2-((S)-1-methoxyethyl)-5-((1-methyl-1H-indol-7-yl)ethynyl)pyridin-3-yl)-10,10-dimethyl-5,7-dioxo-6^1,6^2,6^3,6^4,6^5,6^6-hexahydro-1^1H-8-oxa-2(4,2)-thiazola-1(5,3)-indola-6(1,3)-pyridazinacycloundecaphane-4-yl)-2-methylcyclopropane-1-carboxamide]
IC50 (AsPC-1 (G12D); Homo sapiens, ASPC1): 456 nM
IC50 (SW480 (G12V); Homo sapiens): 116 nM

(1S,2S)-N-((6^3S,4S,Z)-1^1-ethyl-1^2-(5-((2-(ethylamino)pyrimidin-5-yl)ethynyl)-2-((S)-1-methoxyethyl)pyridin-3-yl)-10,10-dimethyl-5,7-dioxo-6^1,6^2,6^3,6^4,6^5,6^6-hexahydro-1^1H-8-oxa-2(4,2)-thiazola-1(5,3)-indola-6(1,3)-pyridazinacycloundecaphane-4-yl)-2-methylcyclopropane-1-carboxamide [Example 42]
IC50 (AsPC-1 (G12D)): 22.2 nM
IC50 (SW480 (G12V)): 6.9 nM

(1S,2S)-N-((6^3S,4S,Z)-1^1-ethyl-1^2-(2-((S)-1-methoxyethyl)-5-((6-methyl-5,6,7,8-tetrahydropyrido[4,3-d]pyrimidin-2-yl)ethynyl)pyridin-3-yl)-10,10-dimethyl-5,7-dioxo-6^1,6^2,6^3,6^4,6^5,6^6-hexahydro-1^1H-8-oxa-2(4,2)-thiazola-1(5,3)-indola-6(1,3)-pyridazinacycloundecaphane-4-yl)-2-methylcyclopropane-1-carboxamide [Example 44]
IC50 (AsPC-1 (G12D)): 16.8 nM
IC50 (SW480 (G12V)): 6.3 nM
